In brackets after ≈: the same amount, converted by molar mass. Activity calls are given as the source filed them. No cut-off for these calls is given here.
Tests used:
Acinetobacter [1] = test: Antimicrobial activity against Acinetobacter baumannii-Acinetobacter calcoaceticus complex isolated from diabetic patient with calcaneal osteomyelitis by broth microdilution assay; type: functional
Acinetobacter [2] = test: Antimicrobial activity against 8 ug/ml colistin-subcultured Acinetobacter baumannii-Acinetobacter calcoaceticus complex isolated from diabetic patient with calcaneal osteomyelitis and bacteremia by broth microdilution assay; type: functional

Compound: CC(C)(O/N=C(\C(=O)N[C@@H]1C(=O)N2C(C(=O)[O-])=C(C[n+]3ccccc3)CS[C@H]12)c1csc(N)n1)C(=O)O [CEFTAZIDIME]
- MIC (Acinetobacter [1]): > 64 µg/mL
- MIC (Acinetobacter [2]): inactive

Compound: O=C(O)[C@H]1/C(=C/CO)O[C@@H]2CC(=O)N21 [CLAVULANIC ACID]
- MIC (Acinetobacter [1]): > 2 µg/mL
- MIC (Acinetobacter [2]): inactive

Compound: CC[C@H]1OC(=O)[C@H](C)[C@@H](O[C@H]2C[C@@](C)(OC)[C@@H](O)[C@H](C)O2)[C@H](C)[C@@H](O[C@@H]2O[C@H](C)C[C@H](N(C)C)[C@H]2O)[C@](C)(O)C[C@@H](C)CN(C)[C@H](C)[C@@H](O)[C@]1(C)O [AZITHROMYCIN]
- MIC (Acinetobacter [1]): 8 µg/mL (≈ 10.7 µM)
- MIC (Acinetobacter [2]): inactive

Compound: CN(C)c1ccc(O)c2c1C[C@H]1C[C@H]3[C@H](N(C)C)C(O)=C(C(N)=O)C(=O)[C@@]3(O)C(O)=C1C2=O [MINOCYCLINE]
- MIC (Acinetobacter [1]): 1 µg/mL (≈ 2.19 µM)
- MIC (Acinetobacter [2]): inactive

Compound: C[C@@H](O)[C@H]1C(=O)N2C(C(=O)O)=C(SCCNC=N)C[C@H]12 [IMIPENEM ANHYDROUS]
- MIC (Acinetobacter [1]): 16 µg/mL (≈ 53.4 µM)
- MIC (Acinetobacter [2]): inactive

Compound: CC1(C)[C@H](C(=O)O)N2C(=O)C[C@H]2S1(=O)=O [SULBACTAM]
- MIC (Acinetobacter [1]): > 64 µg/mL
- MIC (Acinetobacter [2]): inactive

Compound: NCC[C@H](O)C(=O)N[C@@H]1C[C@H](N)[C@@H](O[C@H]2O[C@H](CN)[C@@H](O)[C@H](O)[C@H]2O)[C@H](O)[C@H]1O[C@H]1O[C@H](CO)[C@@H](O)[C@H](N)[C@H]1O [AMIKACIN]
- MIC (Acinetobacter [1]): 8 µg/mL (≈ 13.7 µM)
- MIC (Acinetobacter [2]): inactive

Compound: CC1(C)S[C@@H]2[C@H](NC(=O)[C@H](C(=O)O)c3ccsc3)C(=O)N2[C@H]1C(=O)O [TICARCILLIN]
- MIC (Acinetobacter [1]): > 256 µg/mL
- MIC (Acinetobacter [2]): inactive

Compound: C[C@H]1c2cccc(O)c2C(=O)C2=C(O)[C@]3(O)C(=O)C(C(N)=O)=C(O)[C@@H](N(C)C)[C@@H]3[C@@H](O)[C@@H]21.O [DOXYCYCLINE]
- MIC (Acinetobacter [1]): 8 µg/mL
- MIC (Acinetobacter [2]): 1 µg/mL

Compound: CN(C)c1cc(NC(=O)CNC(C)(C)C)c(O)c2c1C[C@H]1C[C@H]3[C@H](N(C)C)C(O)=C(C(N)=O)C(=O)[C@@]3(O)C(O)=C1C2=O [TIGECYCLINE]
- MIC (Acinetobacter [1]): 2 µg/mL (≈ 3.41 µM)
- MIC (Acinetobacter [2]): 0.12 µg/mL

Compound: CC1(C)S[C@@H]2[C@H](NC(=O)[C@H](N)c3ccccc3)C(=O)N2[C@H]1C(=O)O [AMPICILLIN]
- MIC (Acinetobacter [1]): > 8 µg/mL
- MIC (Acinetobacter [2]): inactive

Compound: POLYMYXIN B
- MIC (Acinetobacter [1]): 1 µg/mL
- MIC (Acinetobacter [2]): 4 µg/mL

Compound: GENTAMICIN
- MIC (Acinetobacter [1]): > 8 µg/mL
- MIC (Acinetobacter [2]): inactive

Compound: COLISTIN
- MIC (Acinetobacter [1]): 1 µg/mL
- MIC (Acinetobacter [2]): > 16 µg/mL

Reference: ChEMBL document CHEMBL1151430, “Development of colistin-dependent Acinetobacter baumannii-Acinetobacter calcoaceticus complex” (2007)
